The target of the assay is PD-1/PD-L1 (Homo sapiens (Human), UniProt Q9NZQ7). As to the kind of experiment: PD-1/PD-L1 binding assay (HTRF). In a few lines:
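HTRF read-out (665/620 nm) after 60 min at 25 °C with 1 nM Eu anti-human IgG and 20 nM APC anti-His. Beforehand, inhibitors were preincubated 40 min with Fc-PD-1 (25-167, […] as listed) and His-PD-L1 (19-238, 10 nM) in PBS pH 7.4 with Tween-20, BSA, 1% DMSO; IC50 from log-concentration curve.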
On the technique in general: Time-resolved FRET reads energy transfer from a long-lived donor to a nearby acceptor.

One may read the IC50 as the concentration needed to halve the response being measured. Low values mean inhibition by little substance, high ones a need for much substance.

Sequence of PD-1/PD-L1 (Q9NZQ7 19-238): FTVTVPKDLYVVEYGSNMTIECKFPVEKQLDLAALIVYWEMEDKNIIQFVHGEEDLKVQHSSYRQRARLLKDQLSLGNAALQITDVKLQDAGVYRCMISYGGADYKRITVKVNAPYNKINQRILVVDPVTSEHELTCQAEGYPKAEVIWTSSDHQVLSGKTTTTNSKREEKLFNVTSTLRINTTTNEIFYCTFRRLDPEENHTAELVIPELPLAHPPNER

Regarding `Cc1c(NC(=O)c2nc3c(n2C)CCN(C2CCC(O)CC2)C3)cccc1-c1cccc(NC(=O)c2nc3c(n2C)CCN(CC[C@H]2CC[C@H](C(=O)O)CC2)C3)c1Cl` (single isomer, unassigned) [Compound 134-1, Trans-4-(2-(2-(2-chloro-3′-(5-(4-hydroxycyclohexyl)-1-methyl-4,5,6,7-tetrahydro-1H-imidazo[4,5-c]pyridine-2-carboxamido)-2′-methylbiphenyl-3-ylcarbamoyl)-1-methyl-6,7-dihydro-1H-imidazo[4,5-c]pyridin-5(4H)-yl)ethyl)cyclohexane-1-carboxylic Acid], the IC50 is at most 10 nM.

Turning to `Cc1c(NC(=O)c2cc(CN3CCCC3)cn(C)c2=O)cccc1-c1cccc(NC(=O)c2nc3c(n2C)CCN(C[C@H](C)O)C3)c1Cl` [Example 52, (S)—N-(2-chloro-2′-methyl-3′-(1-methyl-2-oxo-5-(pyrrolidin-1-ylmethyl)-1,2-dihydropyridine-3-carboxamido)biphenyl-3-yl)-5-(2-hydroxypropyl)-1-methyl-4,5,6,7-tetrahydro-1H-imidazo[4,5-c]pyridine-2-carboxamide], the IC50 is at most 10 nM.

Regarding `Cc1c(NC(=O)c2nc3c(n2C)CCN(CC24CCC(C(=O)O)(CC2)CC4)C3)cccc1-c1cccc(NC(=O)c2nc3c(n2C)CCN(C)C3)c1Cl` [Example 103, 4-((2-(2′-chloro-3′-(1,5-dimethyl-4,5,6,7-tetrahydro-1H-imidazo[4,5-c]pyridine-2-carboxamido)-2-methylbiphenyl-3-ylcarbamoyl)-1-methyl-6,7-dihydro-1H-imidazo[4,5-c]pyridin-5(4H)-yl)methyl)bicyclo[2.2.2]octane-1-carboxylic acid], the IC50 is at most 10 nM.

The compound `Cc1c(NC(=O)c2nc3c(n2C)CCN(C2CCOCC2)C3)cccc1-c1cccc(NC(=O)c2nc3c(n2C)CCN(C)C3)c1Cl` [Example 29, N-(2-chloro-2′-methyl-3′-(1-methyl-5-(tetrahydro-2H-pyran-4-yl)-4,5,6,7-tetrahydro-1H-imidazo[4,5-c]pyridine-2-carboxamido)biphenyl-3-yl)-1,5-dimethyl-4,5,6,7-tetrahydro-1H-imidazo[4,5-c]pyridine-2-carboxamide] returned an IC50 of at most 10 nM.

In turn, `Cc1c(NC(=O)c2nc3c(n2C)CCN(C)C3)cccc1-c1cccc(NC(=O)c2nc3c(n2C)CCN(C2CCC(C)(C(=O)O)CC2)C3)c1Cl` (stereo not shown) [Example 118, 4-(2-((2-chloro-3′-(1,5-dimethyl-4,5,6,7-tetrahydro-1H-imidazo[4,5-c]pyridine-2-carboxamido)-2′-methyl-[1,1′-biphenyl]-3-yl)carbamoyl)-1-methyl-1,4,6,7-tetrahydro-5H-imidazo[4,5-c]pyridin-5-yl)-1-methylcyclohexane-1-carboxylic acid] had an IC50 of at most 10 nM.

Take `CC(=O)N1CCC(N2CCc3c(nc(C(=O)Nc4cccc(-c5cccc(NC(=O)c6nc7c(n6C)CCN(C)C7)c5Cl)c4C)n3C)C2)CC1` [Example 34, 5-(1-acetylpiperidin-4-yl)-N-(2′-chloro-3′-(1,5-dimethyl-4,5,6,7-tetrahydro-1H-imidazo[4,5-c]pyridine-2-carboxamido)-2-methylbiphenyl-3-yl)-1-methyl-4,5,6,7-tetrahydro-1H-imidazo[4,5-c]pyridine-2-carboxamide]: the IC50 was at most 10 nM.

In the case of `C[C@@H](O)CN1CCc2c(nc(C(=O)Nc3cccc(-c4cccc(NC(=O)c5nc6c(n5C)CCN(C)C6)c4C#N)c3Cl)n2C)C1` [Example 40, (R)—N-(2-chloro-2′-cyano-3′-(1,5-dimethyl-4,5,6,7-tetrahydro-1H-imidazo[4,5-c]pyridine-2-carboxamido)biphenyl-3-yl)-5-(2-hydroxypropyl)-1-methyl-4,5,6,7-tetrahydro-1H-imidazo[4,5-c]pyridine-2-carboxamide], the IC50 is at most 10 nM.

As to `Cc1c(NC(=O)c2nc3c(n2C)CCN(C[C@H]2CC[C@@H](C(=O)O)CC2)C3)cccc1-c1cccc(NC(=O)c2nc3c(n2C)CCNC3)c1Cl` [Example 113, cis-4-((2-((2′-chloro-2-methyl-3′-(1-methyl-4,5,6,7-tetrahydro-1H-imidazo[4,5-c]pyridine-2-carboxamido)-[1,1′-biphenyl]-3-yl)carbamoyl)-1-methyl-1,4,6,7-tetrahydro-5H-imidazo[4,5-c]pyridin-5-yl)methyl)cyclohexane-1-carboxylic acid], the IC50 was at most 10 nM.

With `Cn1c(C(=O)Nc2cccc(-c3cccc(NC(=O)c4nc5c(n4C)CCN(C[C@H]4CC[C@@H](C(=O)O)CC4)C5)c3Cl)c2Cl)nc2c1CCNC2` [Example 68, cis-4-((2-((2,2′-dichloro-3′-(1-methyl-4,5,6,7-tetrahydro-1H-imidazo[4,5-c]pyridine-2-carboxamido)-[1,1′-biphenyl]-3-yl)carbamoyl)-1-methyl-1,4,6,7-tetrahydro-5H-imidazo[4,5-c]pyridin-5-yl)methyl)cyclohexane-1-carboxylic acid], the IC50 was at most 10 nM.

With `CC(C)N1CCc2c(nc(C(=O)Nc3cccc(-c4cccc(NC(=O)c5nc6c(n5C)CCN(CC57CCC(C(=O)O)(CC5)C7)C6)c4Cl)c3Cl)n2C)C1` [Compound 177, 4-((2-(2,2′-dichloro-3′-(5-isopropyl-1-methyl-4,5,6,7-tetrahydro-1H-imidazo[4,5-c]pyridine-2-carboxamido)biphenyl-3-ylcarbamoyl)-1-methyl-6,7-dihydro-1H-imidazo[4,5-c]pyridin-5(4H)-yl)methyl)bicyclo[2.2.1]heptane-1-carboxylic acid], the IC50 was at most 10 nM.

In the case of `C[C@@H](O)CN1CCc2c(nc(C(=O)Nc3cccc(-c4cccc(NC(=O)c5nc6c(n5C)CCN(C[C@H]5CC[C@H](C(=O)O)CC5)C6)c4Cl)c3Cl)n2C)C1` [Example 67, trans-4-((2-((2,2′-dichloro-3′-(5-((R)-2-hydroxypropyl)-1-methyl-4,5,6,7-tetrahydro-1H-imidazo[4,5-c]pyridine-2-carboxamido)-[1,1′-biphenyl]-3-yl)carbamoyl)-1-methyl-1,4,6,7-tetrahydro-5H-imidazo[4,5-c]pyridin-5-yl)methyl)cyclohexane-1-carboxylic acid], the IC50 is at most 10 nM.

In the case of `C[C@@H](O)CN1CCc2c(nc(C(=O)Nc3cccc(-c4cccc(NC(=O)c5nc6c(n5C)CCN(CC[C@H]5CC[C@H](C(=O)O)CC5)C6)c4Cl)c3Cl)n2C)C1` [Example 95, trans-4-(2-(2-((2,2′-dichloro-3′-(5-((R)-2-hydroxypropyl)-1-methyl-4,5,6,7-tetrahydro-1H-imidazo[4,5-c]pyridine-2-carboxamido)-[1,1′-biphenyl]-3-yl)carbamoyl)-1-methyl-1,4,6,7-tetrahydro-5H-imidazo[4,5-c]pyridin-5-yl)ethyl)cyclohexane-1-carboxylic acid], the IC50 is at most 10 nM.

The compound `Cn1c(C(=O)Nc2cccc(-c3cccc(NC(=O)c4nc5c(n4C)CCN(C4CCCCC4)C5)c3Cl)c2Cl)nc2c1CCN(CC[C@H]1CC[C@H](C(=O)O)CC1)C2` [Example 91, trans-4-(2-(2-((2,2′-dichloro-3′-(5-cyclohexyl-1-methyl-4,5,6,7-tetrahydro-1H-imidazo[4,5-c]pyridine-2-carboxamido)-[1,1′-biphenyl]-3-yl)carbamoyl)-1-methyl-1,4,6,7-tetrahydro-5H-imidazo[4,5-c]pyridin-5-yl)ethyl)cyclohexane-1-carboxylic acid] had an IC50 of at most 10 nM.
